In patent US5691361A, “1,4-dihydropyridine derivatives, a process for their preparation and their use for influencing the blood flow” (priority 1995, dated 1997):

Tested on: rabbit aorta strips
Assay: Vasoconstrictory effect in rabbit aorta strips at low depolarizing conditions (10 mM K+)
Type: cell-based
Protocol: The vasoconstrictory effects are measured at low depolarizing conditions in rabbit aorta strips. 10 mM K^+ is used to obtain a low starting concentration. Subsequently, increasing concentrations of the test compound are added in order to achieve an increase in contraction.
The EC50 (negative logarithm of the molar concentration required to increase the calcium induced contraction of low K^+ depolarized rabbit aorta by 50%) is analysed by interpolation of the corresponding concentration-response curves (table 4).

SMILES: CC1=C(C(=O)OCN2C(=O)c3ccccc3S2(=O)=O)C(c2cccc([N+](=O)[O-])c2)C(C(=O)OC(C)(C)C)=C(C)N1 (centres unmarked) [Example 53, 5-Tert.-butoxycarbonyl-2,6-dimethyl-4-(3-nitrophenyl)-1,4-dihydropyridine-3-carboxylic acid-N-(1,2-benzisothiazolyl-3(2H)one-1,1-dioxide)-methylester]
- vasoconstrictory properties (in words): has vasoconstrictory properties
- EC50 (Oryctolagus cuniculus, rabbit aorta strips predepolarized with 10 mM K+): 9.3 nM
